The values that follow come from patent publication US8541588B2, “Sulfonamide derivatives” (Pfizer Limited, priority 2009, dated 2013).

The first test deals with T1, Nav1.7 (or SCN9A) channel; HEK cells stably transfected with hSCN9A (Homo sapiens, UniProt Q15858).
T1 construct: expressed in transfected cells
T1 sequence (Q15858 whole entry): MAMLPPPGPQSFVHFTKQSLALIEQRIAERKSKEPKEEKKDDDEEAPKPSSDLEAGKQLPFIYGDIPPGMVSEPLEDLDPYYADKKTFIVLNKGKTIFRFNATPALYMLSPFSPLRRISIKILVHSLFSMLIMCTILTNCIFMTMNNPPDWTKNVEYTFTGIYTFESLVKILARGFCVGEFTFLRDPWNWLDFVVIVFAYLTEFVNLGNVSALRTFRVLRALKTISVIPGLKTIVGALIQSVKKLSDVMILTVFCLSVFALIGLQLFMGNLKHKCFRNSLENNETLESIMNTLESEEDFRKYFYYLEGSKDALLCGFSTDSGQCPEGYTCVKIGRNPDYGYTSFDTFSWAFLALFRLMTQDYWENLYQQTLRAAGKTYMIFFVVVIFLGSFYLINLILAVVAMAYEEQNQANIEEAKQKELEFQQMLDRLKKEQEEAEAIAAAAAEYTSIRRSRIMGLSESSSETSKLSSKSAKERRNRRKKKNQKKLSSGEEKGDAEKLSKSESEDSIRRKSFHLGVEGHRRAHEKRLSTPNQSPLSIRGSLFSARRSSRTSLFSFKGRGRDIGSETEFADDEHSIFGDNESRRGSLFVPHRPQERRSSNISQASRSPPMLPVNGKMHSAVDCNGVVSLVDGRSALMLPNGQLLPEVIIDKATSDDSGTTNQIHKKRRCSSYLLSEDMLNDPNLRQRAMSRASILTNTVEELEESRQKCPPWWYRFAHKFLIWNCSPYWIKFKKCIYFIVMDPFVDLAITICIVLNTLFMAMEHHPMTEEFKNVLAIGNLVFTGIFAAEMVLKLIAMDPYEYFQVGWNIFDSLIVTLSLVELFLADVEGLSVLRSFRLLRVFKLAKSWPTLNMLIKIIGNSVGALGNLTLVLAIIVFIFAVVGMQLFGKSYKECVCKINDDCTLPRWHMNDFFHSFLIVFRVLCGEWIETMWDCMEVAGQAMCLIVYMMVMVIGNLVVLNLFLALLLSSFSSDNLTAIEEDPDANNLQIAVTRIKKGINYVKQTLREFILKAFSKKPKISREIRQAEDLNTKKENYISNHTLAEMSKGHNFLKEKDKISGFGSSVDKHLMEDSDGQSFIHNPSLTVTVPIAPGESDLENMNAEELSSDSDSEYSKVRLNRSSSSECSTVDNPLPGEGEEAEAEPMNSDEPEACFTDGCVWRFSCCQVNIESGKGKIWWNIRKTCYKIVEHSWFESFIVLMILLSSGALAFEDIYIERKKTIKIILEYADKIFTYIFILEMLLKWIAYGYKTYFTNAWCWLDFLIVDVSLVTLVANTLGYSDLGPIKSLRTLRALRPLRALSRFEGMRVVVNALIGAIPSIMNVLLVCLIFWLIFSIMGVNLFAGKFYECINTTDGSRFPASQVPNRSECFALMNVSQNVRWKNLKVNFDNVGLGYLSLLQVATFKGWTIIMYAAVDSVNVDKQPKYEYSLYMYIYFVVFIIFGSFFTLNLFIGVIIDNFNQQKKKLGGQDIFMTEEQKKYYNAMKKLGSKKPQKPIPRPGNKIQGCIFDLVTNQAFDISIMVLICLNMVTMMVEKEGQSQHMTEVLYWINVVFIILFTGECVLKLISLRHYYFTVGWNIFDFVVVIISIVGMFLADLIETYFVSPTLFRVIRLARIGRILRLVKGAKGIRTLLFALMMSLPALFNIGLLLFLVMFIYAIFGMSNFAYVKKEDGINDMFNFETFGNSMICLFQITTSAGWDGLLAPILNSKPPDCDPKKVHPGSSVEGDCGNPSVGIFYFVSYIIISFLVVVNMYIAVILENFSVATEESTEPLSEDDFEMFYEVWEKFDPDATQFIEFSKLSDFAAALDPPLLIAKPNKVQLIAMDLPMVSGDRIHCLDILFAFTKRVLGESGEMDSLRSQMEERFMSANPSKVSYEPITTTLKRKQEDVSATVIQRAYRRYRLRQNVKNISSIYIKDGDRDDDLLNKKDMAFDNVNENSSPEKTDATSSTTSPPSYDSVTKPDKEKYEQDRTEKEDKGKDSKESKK
In words: Nav1.7 block, PatchXpress 7000 automated whole-cell voltage clamp, estimated IC50 (EIC50). The settings on record: PatchXpress platform; hSCN9A HEK cells held at V1/2 of inactivation; estimated IC50. In kind it is cell-based.
For `O=S(=O)(Nc1ncns1)c1ccc(Oc2ccccc2-c2ccccc2)c(F)c1F` [Example 269, 4-(biphenyl-2-yloxy)-2,3-difluoro-N-1,2,4-thiadiazol-5-ylbenzenesulfonamide], the IC50 is 0.48 µM.
Take `O=C(O)Cn1nccc1-c1cc(F)ccc1Oc1ccc(S(=O)(=O)Nc2nccs2)cc1F` [Example 238, 2-(5-(5-fluoro-2-(2-fluoro-4-(N-thiazol-2-ylsulfamoyl)phenoxy)phenyl)-1H-pyrazol-1-yl)acetic acid]: the IC50 was 2.21 µM.
Turning to `N#Cc1cc(S(=O)(=O)Nc2nccs2)ccc1Oc1ccc(Cl)cc1-c1ccnn1CC(F)(F)F` [Example 177, 4-(4-chloro-2-(1-(2,2,2-trifluoroethyl)-1H-pyrazol-5-yl)phenoxy)-3-cyano-N-(thiazol-2-yl)benzenesulfonamide], the IC50 was 0.1 µM.
In the case of `N#Cc1cc(S(=O)(=O)Nc2ncc(Cl)s2)ccc1Oc1cc(C(F)(F)F)nn1Cc1ccccc1` [Example 142, 4-{[1-benzyl-3-(trifluoromethyl)-1H-pyrazol-5-yl]oxy}-N-(5-chloro-1,3-thiazol-2-yl)-3-cyanobenzenesulfonamide], the half-inhibitory concentration (IC50) is 2.62 µM.
Same read-out and setting: under `CC(C)(C)n1nc(C(F)(F)F)cc1-c1ccc(Oc2ccc(S(=O)(=O)Nc3ncc(F)s3)cc2C#N)cc1` [Example 281, 4-(4-(1-tert-butyl-3-(trifluoromethyl)-1H-pyrazol-5-yl)phenoxy)-3-cyano-N-(5-fluorothiazol-2-yl)benzenesulfonamide] stands 0.12 µM; under `Cc1cccc(-c2ccc(F)cc2)c1Oc1ccc(S(=O)(=O)Nc2ncns2)cc1C#N` [Example 39, 3-cyano-4-[(4′-fluoro-3-methylbiphenyl-2-yl)oxy]-N-1,2,4-thiadiazol-5-ylbenzenesulfonamide], 2.03 µM.
In the case of `N#Cc1cc(S(=O)(=O)Nc2ncc(Cl)s2)ccc1Oc1ccccc1Oc1ccncc1` [Example 135, N-(5-chloro-1,3-thiazol-2-yl)-3-cyano-4-[2-(pyridin-4-yloxy)phenoxy]benzenesulfonamide], the IC50 was 0.73 µM.
Regarding `N#Cc1cc(S(=O)(=O)Nc2ncns2)ccc1Oc1ccccc1-c1ccc(F)cc1` [Example 49, 3-cyano-4-[(4′-fluorobiphenyl-2-yl)oxy]-N-1,2,4-thiadiazol-5-ylbenzenesulfonamide], the IC50 is 0.16 µM.
On to `N#Cc1cc(S(=O)(=O)Nc2nccs2)ccc1Oc1ccc(F)cc1-c1ccc(F)cc1` [Example 152, 3-cyano-4-[(4′,5-difluorobiphenyl-2-yl)oxy]-N-1,3-thiazol-2-ylbenzenesulfonamide], for which the IC50 was 0.08 µM.

Still in this test, the particulars now being: estimated IC50; hSCN9A HEK cells, PatchXpress platform; Examples 283-814.
As for `Cc1n[nH]cc1-c1cc(Cl)ccc1Oc1ccc(S(=O)(=O)Nc2nccs2)cc1F` [Example 749, 4-[4-chloro-2-(3-methyl-1H-pyrazol-4-yl)phenoxy]-3-fluoro-N-1,3-thiazol-2-ylbenzenesulfonamide], the IC50 was 0.045 µM.
In the case of `N#Cc1cc(S(=O)(=O)Nc2ncc(Cl)s2)ccc1Oc1ccc(F)cc1-c1ccn[nH]1` [Example 589, N-(5-Chloro-1,3-thiazol-2-yl)-3-cyano-4-[4-fluoro-2-(1H-pyrazol-5-yl)phenoxy]benzenesulfonamide], the IC50 is 0.51 µM.
`Cn1nc(C(F)(F)F)cc1-c1ccc(Oc2ccc(S(=O)(=O)Nc3nccs3)cc2C#N)cc1F` [Example 329, 3-cyano-4-{3-fluoro-4-[1-methyl-3-(trifluoromethyl)-1H-pyrazol-5-yl]phenoxy}-N-1,3-thiazol-2-ylbenzenesulfonamide]: the IC50 was 0.34 µM.
On the same count and under the same terms, then `Cn1cc(-c2cc(OC(F)(F)F)ccc2Oc2cc(F)c(S(=O)(=O)Nc3cscn3)cc2F)cn1` [Example 607, 2,5-difluoro-4-[2-(1-methyl-1H-pyrazol-4-yl)-4-(trifluoromethoxy)phenoxy]-N-1,3-thiazol-4-ylbenzenesulfonamide], with 2.8 µM; and `Cn1ccnc1-c1cc(Cl)ccc1Oc1ccc(S(=O)(=O)Nc2nccs2)cc1C#N` [Example 651, 4-[4-chloro-2-(1-methyl-1H-imidazol-2-yl)phenoxy]-3-cyano-N-1,3-thiazol-2-ylbenzenesulfonamide], with 1 µM.

As usually defined, the IC50 is the concentration needed to halve the response being measured.
